Holding throughout (format): cell-based
The test system of one test is porcine PGCs. In words: In vitro culture of porcine PGCs on STO feeder cells with apoptosis inhibitors; AP-stained colonies counted. The following applies: for Effect of timing of exposure on number of colonies, in words: all 8 days vs first 4 days vs last 4 days. The text has this:
Porcine fetuses were collected from hysterectomized uteri of four-way crossbred gilts (DeKalb, Ill.) between day 25 and 30 of pregnancy (estrus=day 0). Fetuses were washed in phosphate buffered saline supplemented with BSA (0.4%, Sigma St. Louis, Mo.) and penicillin/streptomycin (1%, Gibco BRL, Rockville, Md.) (PBS/BSA/PS). Urogenital ridges, appeared as longitudinal protrusions along the medial mesonephric surface, were isolated and washed in PBS/BSA/PS followed by several washes in PES medium before PGC collection. The PES medium was comprised of 50:50 mixture of Dulbecco's modified Eagle's medium (DMEM) and Ham's F10 medium supplemented with 15% fetal bovine serum (FBS), L-glutamine (2 mM), β-mercaptoethanol (0.1 mM), MEM non-essential amino acids (1%) and penicillin/streptomycin (1%). All media and supplements were purchased from Gibco BRL.
PGCs were isolated by incubation in 0.25% trypsin/1 mM EDTA solution (Gibco BRL) followed by gentle pipetting or by mechanical dissociation of ridges into small fragments followed by gentle pipetting. After tissue disruption, cells were centrifuged for 5 minutes at 250 rpm to remove tissue debris and clumps. The supernatant containing most the single cells was collected and centrifuged at 1000 rpm for 10 minutes.
PGCs were resuspended with PES medium containing cytokines, such as soluble recombinant human stem cell factor (SCF; 40 ng/ml), human basic fibroblast growth factor (bFGF; 20 ng/ml), and human leukemia inhibitory factor (LIF; 20 ng/ml). All cytokines were obtained from R&D Systems (Minneapolis, Minn.). Cell suspensions were plated on irradiated mouse STO feeder cells (3×10^6 cells per 35 mm well), prepared as previously described (Piedrahita et al., 1998) and cultured in humidified environment of 5% CO2 in air, 38° C. PGC-derived colonies with ES-like morphology after 7-10 days of culture are passaged to fresh feeders for establishment of cell lines. PGC-derived colonies were dissociated with 0.25% trypsin/1 mM EDTA (Gibco BRL) for 10 minutes. […] To identify PGC-derived cells and the state of differentiation were determined by morphology and by expression of alkaline phosphatase (AP).
AP activity was determined as described previously (Moore and Piedrahita, 1997). Briefly, culture plates were rinsed twice in PBS and fixed in 4% formaldehyde in PBS for 15 minutes at room temperature. Fixed cells were washed twice with PBS and stained in naphtol AS-MX phosphate (200 μg/ml; Sigma) and Fast Red TR salt (1 mg/ml; Sigma) in 100 mM Tris buffer, pH 8.2 for 30 minutes at room temperature. Staining was terminated by washing cultures in PBS. Specificity of AP activity was determined by staining in the presence of the AP inhibitor, tetramisole (500 μM; Sigma). Mouse ES cells also were stained as control for AP activity.
To determine the effect of apoptosis inhibitors on survival of porcine PGCs in vitro, freshly isolated PGCs were cultured as described above with or without apoptosis inhibitors, α2-macroglobulin (MAC: broad range protease inhibitor, 1.4 pM) and N-acetylcysteine (NAC: antioxidant, 1 mM). After 7-10 days of culture, colonies were stained for AP activity and counted. Studies were performed at least three replicates. The data were normalized to the treatment with no inhibitors added (control) and tested for homogeneity of variance and analyzed by ANOVA. Mean separation is accomplished by Fisher's protected LSD using software SuperANOVA (Abacus Concepts).
Dose titration of MAC (0.35, 0.7, 1.4, and 2.8 pM) and NAC (0.25, 0.5, 1.0, and 2.0 mM), to determine the optimal concentration of inhibitors, were performed.

Test [1] deals with Bovine embryonic fibroblasts (BEF). Put plainly: TUNEL assay (flow cytometry) of serum starved bovine embryonic fibroblasts. The following applies: MAC 0.7 pM, NAC 1 mM, GSH 2 mM; for 5-day Apoptosis (%): serum starvation 5 days, serum starved without inhibitor 15.0; for 10-day Apoptosis (%): serum starvation 10 days, serum starved without inhibitor 20.4. As for the experimental part:
Bovine embryonic fibroblasts (BEF) were isolated from the fetus with 3-5 cm crown-rump length. After two or three passages, cells were plated one million cells per plate (100 mm) with growth medium (DMEM) with 2 mM L-glutamine, 0.1 mM β-mercaptoethanol and 10% FBS. After 24 hours, cells were washed with PBS 3-5 times and then serum starvation medium with 0.5% FBS was added. In addition, cells were treated with serum starvation medium containing apoptosis inhibitors such as a2-macroglobulin (0.7 pM), N-acetylcysteine (1 mM) and glutathione (2 mM). Cells were treated with serum starvation with or without apoptosis inhibitors for 5 or 10 days. Then cells were trypsinized and counted.
After counting, cells were fixed and stained according to protocols with the APO-BRDU kit (Phoenix Flow Systems, San Diego, Calif.). Briefly, cells were fixed in 1% paraformaldehyde in PBS on ice for 15 minutes, washed in PBS, and fixed in 70% ethanol and stored at −20° C. until use. After removing the fixative, cells were washed twice and suspended in 50 μl of labeling solution containing Br-dUTP (bromolated deoxyuridine triphosphate) and TdT (terminal deoxynucleotidyl transferase) for 60 minutes at 37° C. TdT catalyzes the addition of Br-dUTP to the 3′-OH ends of DNA strand breaks in a template independent manner. To determine base line fluorescence, control cells were incubated without TdT. After rinsing, cells were incubated with an anti-BrdU monoclonal antibody conjugated to fluorescein for 30 minutes in the dark at room temperature; apoptotic cells which contain many free 3′-OH ends are intensely labeled, while non-apoptotic cells whose DNA is largely intact have little Br-dUTP incorporation and remain unlabeled. Following counterstaining with a propidium iodide/RNase A solution for 30 minutes in the dark, which allows simultaneous analysis of cell cycle position and apoptosis, cells were analyzed on a FACSCalibur™ flow cytometer (Becton Dickinson, San Jose, Calif.). Fluorescence emissions were measured at 582±21 nm for propidium iodide and 530±15 nm for fluorescein, without spectral compensation, after excitation at 488 nm by an argon-ion laser. For analysis, gates were set so that less than 2% of samples incubated without TdT were positive. Any event above this gate was deemed TUNEL positive for samples incubated with TdT.
For orientation: In flow cytometry, cells or beads pass a laser one at a time.

The next test has as its system mouse ES cells. In words: Culture of mouse ES cells with NAC.

The results in this text go back to US6635802B1, “Nuclear transfer using cells cultured in serum starvation media containing apoptosis inhibitors” (The Texas A&M University System, priority 2000, dated 2003).

Consider `CC(=O)N[C@@H](CS)C(=O)O` [NAC, N-acetylcysteine], for which the “Normalized # of Colonies + SE” value in the test on porcine PGCs (0.25 mM NAC, normalized to control, Table 2 dose response) came out at 1.23 ± 0.14; in the test on porcine PGCs (0.5 mM NAC, normalized to control, Table 2 dose response), 1.75 ± 0.13; in the test with porcine PGCs (1.0 mM NAC, normalized to control, Table 2 dose response), 2.07 ± 0.19; with porcine PGCs (2.0 mM NAC, normalized to control, Table 2 dose response), 2.21 ± 0.04; in the test with porcine PGCs (NAC (1.0 mM) 1-4 days (FH), Table 5 timing study) it was 2.86 ± 0.55; in the test on porcine PGCs (NAC (1.0 mM) 5-8 days (LH), Table 5 timing study) it was 1.01 ± 0.035. Moreover, the “Normalized # of Colonies + SE” value in the test on porcine PGCs (NAC (1.0 mM) all 8 days, Table 5 timing study) stood at 2.64 ± 0.49; in the test on porcine PGCs (Table 7 antioxidants: NAC 1.0 mM, BHA 0.1 mM, BPN 1.0 mM, CIM 2.0 mM, normalized to control), 1.93 ± 0.10. For the same molecule, the “Effect of timing of exposure on number of colonies, in words” value in the test on porcine PGCs is listed as “Addition at later days has little effect”. The “Concentration of maximal response (number of colonies) over the doses studied” value in the test with porcine PGCs (doses 0.25-2.0 mM studied) is recorded as 2.0 mM. Also, the “5-day Apoptosis (%)” value in test [1] was found to be 1.8%. Moreover, the “10-day Apoptosis (%)” value in test [1] came out at 1.1%. For the same molecule, the “% viable cells, in words” value in the test on mouse ES cells (in the presence of NAC) is given as “not greatly affected”. Further, the “Effect on mouse ES cells, in words” value in the test on mouse ES cells (normal culture conditions and absence of BME) is given as “beneficial effect”.

B1: α2-macroglobulin (protein, UniProt P01023 24-1474, looked up)
Alpha-2-macroglobulin: SVSGKPQYMVLVPSLLHTETTEKGCVLLSYLNETVTVSASLESVRGNRSLFTDLEAENDVLHCVAFAVPKSSSNEEVMFLTVQVKGPTQEFKKRTTVMVKNEDSLVFVQTDKSIYKPGQTVKFRVVSMDENFHPLNELIPLVYIQDPKGNRIAQWQSFQLEGGLKQFSFPLSSEPFQGSYKVVVQKKSGGRTEHPFTVEEFVLPKFEVQVTVPKIITILEEEMNVSVCGLYTYGKPVPGHVTVSICRKYSDASDCHGEDSQAFCEKFSGQLNSHGCFYQQVKTKVFQLKRKEYEMKLHTEAQIQEEGTVVELTGRQSSEITRTITKLSFVKVDSHFRQGIPFFGQVRLVDGKGVPIPNKVIFIRGNEANYYSNATTDEHGLVQFSINTTNVMGTSLTVRVNYKDRSPCYGYQWVSEEHEEAHHTAYLVFSPSKSFVHLEPMSHELPCGHTQTVQAHYILNGGTLLGLKKLSFYYLIMAKGGIVRTGTHGLLVKQEDMKGHFSISIPVKSDIAPVARLLIYAVLPTGDVIGDSAKYDVENCLANKVDLSFSPSQSLPASHAHLRVTAAPQSVCALRAVDQSVLLMKPDAELSASSVYNLLPEKDLTGFPGPLNDQDNEDCINRHNVYINGITYTPVSSTNEKDMYSFLEDMGLKAFTNSKIRKPKMCPQLQQYEMHGPEGLRVGFYESDVMGRGHARLVHVEEPHTETVRKYFPETWIWDLVVVNSAGVAEVGVTVPDTITEWKAGAFCLSEDAGLGISSTASLRAFQPFFVELTMPYSVIRGEAFTLKATVLNYLPKCIRVSVQLEASPAFLAVPVEKEQAPHCICANGRQTVSWAVTPKSLGNVNFTVSAEALESQELCGTEVPSVPEHGRKDTVIKPLLVEPEGLEKETTFNSLLCPSGGEVSEELSLKLPPNVVEESARASVSVLGDILGSAMQNTQNLLQMPYGCGEQNMVLFAPNIYVLDYLNETQQLTPEIKSKAIGYLNTGYQRQLNYKHYDGSYSTFGERYGRNQGNTWLTAFVLKTFAQARAYIFIDEAHITQALIWLSQRQKDNGCFRSSGSLLNNAIKGGVEDEVTLSAYITIALLEIPLTVTHPVVRNALFCLESAWKTAQEGDHGSHVYTKALLAYAFALAGNQDKRKEVLKSLNEEAVKKDNSVHWERPQKPKAPVGHFYEPQAPSAEVEMTSYVLLAYLTAQPAPTSEDLTSATNIVKWITKQQNAQGGFSSTQDTVVALHALSKYGAATFTRTGKAAQVTIQSSGTFSSKFQVDNNNRLLLQQVSLPELPGEYSMKVTGEGCVYLQTSLKYNILPEKEEFPFALGVQTLPQTCDEPKAHTSFQISLSVSYTGSRSASNMAIVDVKMVSGFIPLKPTVKMLERSNHVSRTEVSSNHVLIYLDKVSNQTLSLFFTVLQDVPVRDLKPAIVKVYDYYETDEFAIAEYNAPCSKDLGNA
As to B1, the “Normalized # of Colonies + SE” value with porcine PGCs (0.35 pM MAC, normalized to control without inhibitor, Table 1 dose response) turned out to be 1.43 ± 0.03; in the test with porcine PGCs (0.7 pM MAC, normalized to control, Table 1 dose response), 1.90 ± 0.08; with porcine PGCs (1.40 pM MAC, normalized to control, Table 1 dose response), 1.50 ± 0.01; in the test with porcine PGCs (2.8 pM MAC, normalized to control, Table 1 dose response) it was 1.16 ± 0.06; with porcine PGCs (MAC (0.7 pM) all 8 days, Table 4 timing study) it was 1.64 ± 0.08. In addition, the “Number of first passage colonies, in words” value with porcine PGCs (added to the culture media) is recorded as “increased the number of first passage colonies”. Besides, in the test on porcine PGCs, the “Effect of timing of exposure on number of colonies, in words” value was “maximal effects result when MAC is present throughout the incubation period”. In addition, in the test with porcine PGCs (doses 0.35-2.8 pM studied), the “Concentration of maximal response (number of colonies)” value stood at 0.7 pM. Moreover, the “Effect upon second passage, in words” value with porcine PGCs (independent of previous culture in the presence of the molecule) was “protective effect”. Also, in the test with porcine PGCs (single concentrations of Tables 6 and 7), the “Effect on the number of PGCs, in words” value was “induced the most, and significantly, positive effect”. Besides, the “5-day Apoptosis (%)” value in test [1] stood at 3.9%. Also, the “10-day Apoptosis (%)” value in test [1] was 4.6%.
